From ChEMBL document CHEMBL6182915, “Discovery of a Potent FLT3 Inhibitor (E)-4-(3-(3-Fluoro-4-(morpholinomethyl)styryl)-1H-indazol-6-yl)pyridin-2-amine for the Treatment of Acute Myeloid Leukemia with Multiple FLT3 Mutations” (J Med Chem, 2025)
pIC50: −log10 of the molar value.

Key:
Experiment in all cases: cells
[1] = tested on: MV4-11; conditions: Homo sapiens, MV4-11, 72 h
Description: Antiproliferative activity against human MV4-11 cells harboring FLT3-ITD mutant assessed as inhibition of cell growth incubated for 3 days by MTT assay

[2] = tested on: MV4-11; conditions: Homo sapiens, MV4-11, 72 h; remark: listed apart in the source
[3] = tested on: MV4-11; conditions: Homo sapiens, MV4-11, 72 h, read-out: INH

Compound | pIC50 [1] | pIC50 [2] | inhibition at 10 µM [3] [%]
Nc1cc(-c2ccc3c(/C=C/c4ccncc4)n[nH]c3c2)ccn1 | 7.74 | 5.16 | 
Nc1cc(-c2ccc3c(-c4ccc(N5CCOCC5)cc4)n[nH]c3c2)ccn1 | 7.35 | < 5.00 | 
CN1CCN(Cc2ccc(/C=C/c3n[nH]c4cc(-c5ccnc(N)c5)ccc34)cc2)CC1 | 7.78 | 5.80 | 
O=C(c1ccc(/C=C/c2n[nH]c3ccc(-c4cccnc4)cc23)cc1)N1CCNCC1 | 7.82 | < 5.00 | 
CN1CCN(c2ccc(-c3n[nH]c4cc(-c5ccnc(N)c5)ccc34)cc2)CC1 | 7.26 | < 5.00 | 
Nc1nccc(-c2ccc3c(/C=C/c4ccc(CN5CCOCC5)c(F)c4)n[nH]c3c2)n1 | 7.97 | 6.22 | 
Nc1cc(-c2cnc3c(/C=C/c4ccc(CN5CCOCC5)c(F)c4)n[nH]c3c2)ccn1 | 7.59 | 6.05 | 
O=C(c1ccc(/C=C/c2n[nH]c3cc(-c4cccnc4)ccc23)cc1)N1CCNCC1 | 7.78 | < 5.00 | 
Nc1cc(-c2ccc3c(/C=C/c4ccccc4)n[nH]c3c2)ccn1 | 7.40 | 5.21 | 
Nc1cc(-c2ccc3c(/C=C/c4ccc(CN5CCOCC5)cc4)n[nH]c3c2)ccn1 | 7.94 | 5.96 | 
Nc1cc(-c2ccc3c(/C=C/c4ccc(CN5CCOCC5)c(Cl)c4)n[nH]c3c2)ccn1 | 7.98 | 6.10 | 
CN1CCN(c2ccc(/C=C/c3n[nH]c4cc(-c5ccnc(N)c5)ccc34)cc2)CC1 | 8.19 | 5.55 | 
CN1CCN(Cc2ccc(-c3n[nH]c4cc(-c5ccnc(N)c5)ccc34)cc2)CC1 | 6.81 | < 5.00 | 
Nc1cc(-c2ccc3c(/C=C/c4ccc(N5CCOCC5)cc4)n[nH]c3c2)ccn1 | 8.05 | 5.47 | 
O=C(c1ccc(/C=C/c2n[nH]c3ccc(-c4ccccc4)cc23)cc1)N1CCNCC1 | 7.26 | < 5.00 | 
Nc1cc(-c2ccc3c(/C=C/c4ccc(C(=O)N5CCOCC5)cc4)n[nH]c3c2)ccn1 | 7.69 | 5.64 | 

Compound | pIC50 [1] | pIC50 [2] | inhibition at 10 µM [3] [%]
CCn1cc(-c2n[nH]c3cc(-c4ccnc(N)c4)ccc23)cn1 | 6.79 | < 5.00 | 
Nc1cc(-c2ccc3c(/C=C/c4ccc(C(=O)N5CCNCC5)cc4)n[nH]c3c2)ccn1 | 8.21 | 5.74 | 
Nc1cc(-c2ccc3c(-c4ccc(CN5CCOCC5)cc4)n[nH]c3c2)ccn1 | 7.06 | < 5.00 | 
Nc1cc(-c2ccc3c(/C=C/c4cccnc4)n[nH]c3c2)ccn1 | 7.53 | 5.64 | 
O=C(c1ccc(/C=C/c2n[nH]c3cc(-c4ccncc4)ccc23)cc1)N1CCNCC1 | 7.89 | 5.47 | 
O=C(c1ccc(/C=C/c2n[nH]c3cc(-c4ccccc4)ccc23)cc1)N1CCNCC1 | 7.65 | 5.16 | 
Nc1ccc(-c2ccc3c(/C=C/c4ccc(C(=O)N5CCNCC5)cc4)n[nH]c3c2)cn1 | 7.57 | < 5.00 | 
Nc1cc(-c2ccc3c(-c4ccc(S(=O)(=O)N5CCOCC5)cc4)n[nH]c3c2)ccn1 | 6.70 | < 5.00 | 
Nc1cc(-c2ccc3c(-c4cnn(CCO)c4)n[nH]c3c2)ccn1 | 6.65 | < 5.00 | 
CCc1nc(C(N)=O)c(Nc2ccc(N3CCC(N4CCN(C)CC4)CC3)c(OC)c2)nc1NC1CCOCC1 [GILTERITINIB] |  |  | > 70
COc1cc(/C=C/c2n[nH]c3cc(-c4ccnc(N)c4)ccc23)cc(OC)c1 | 6.45 | < 5.00 | 
O=C(c1ccc(/C=C/c2n[nH]c3cc(-c4ccnc5[nH]ccc45)ccc23)cc1)N1CCNCC1 | 7.73 | 5.24 | 
O=C(c1ccc(/C=C/c2n[nH]c3ccc(-c4ccncc4)cc23)cc1)N1CCNCC1 | 7.23 | < 5.00 | 
Nc1cc(-c2ccc3c(CCc4ccc(CN5CCOCC5)c(F)c4)n[nH]c3c2)ccn1 | 6.66 | < 5.00 | 
O=C(Cc1ccc(-c2ccc(OCCN3CCOCC3)cc2)cn1)NCc1ccccc1 [TIRBANIBULIN] |  |  | > 70
